Tests used:
Rattus norvegicus [1] = species on record: Rattus norvegicus
Description: Compound was evaluated for the binding affinity at crude mitochondrial fraction of rat whole brain at 13 fmol of binding sites/mg of protein

Rattus norvegicus [2] = species on record: Rattus norvegicus; remark: listed apart in the source
Description: Compound was evaluated for the binding affinity at crude mitochondrial fraction of rat whole brain at 7 nmol/mg of protein.

CN1CCC[C@H]1c1cccnc1
Ka (Rattus norvegicus [1]): 4.7e+06 M⁻¹ | Ka (Rattus norvegicus [2]): 4400 M⁻¹
